Bridge positions count the residues as written; N and C are the ends. Square brackets hold non-standard residues; d marks the D form. Peptide text beside a SMILES is read from it. Hyp = O=C(O)[C@@H]1C[C@@H](O)CN1; Cit = NC(=O)NCCC[C@H](N)C(=O)O
Legend:
hAMY3 receptor = molecular target: T1, hAMY3 receptor (Homo sapiens, UniProt O60896+P30988); assay: cAMP assay for in vitro receptor activation, hAMY3-R; assay type: cell-based; details: cAMP assay, hAMY3 receptor; read-out: hAMY3R EC50
T1 sequence (P30988 25-474): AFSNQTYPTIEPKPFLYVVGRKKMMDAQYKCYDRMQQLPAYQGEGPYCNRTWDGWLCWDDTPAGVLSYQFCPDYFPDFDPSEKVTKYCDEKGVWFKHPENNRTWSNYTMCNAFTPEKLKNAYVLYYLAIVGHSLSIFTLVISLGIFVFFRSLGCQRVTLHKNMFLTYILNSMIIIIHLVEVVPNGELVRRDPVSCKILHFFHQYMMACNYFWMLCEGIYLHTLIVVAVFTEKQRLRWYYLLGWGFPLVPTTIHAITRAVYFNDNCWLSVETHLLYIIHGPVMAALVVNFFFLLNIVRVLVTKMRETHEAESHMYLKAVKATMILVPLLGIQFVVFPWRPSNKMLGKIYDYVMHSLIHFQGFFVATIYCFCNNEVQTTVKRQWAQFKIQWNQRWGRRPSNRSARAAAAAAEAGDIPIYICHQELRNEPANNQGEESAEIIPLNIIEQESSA
T1 sequence (O60896 24-148 partner): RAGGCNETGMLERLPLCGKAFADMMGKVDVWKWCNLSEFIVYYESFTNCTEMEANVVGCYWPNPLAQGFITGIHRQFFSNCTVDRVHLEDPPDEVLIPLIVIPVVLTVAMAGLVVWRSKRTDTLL
In short: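 Monoclonal cell line stably overexpressing hAMY3 receptor, plated in DPBS with 0.05% casein and 0.5 mM IBMX, was stimulated with graded compound doses for 30 min at room temperature. cAMP accumulation was read by time-resolved FRET one hour after adding detection reagents.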

hAM1 receptor = hAM1 receptor (Homo sapiens, UniProt O60895+Q16602); assay: cAMP assay for in vitro receptor activation, hAM1-R; assay type: cell-based; details: cAMP assay, hAM1 receptor; read-out: hAM1R EC50
In short: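 Receptor activation, read as cAMP, was assessed in thawed cells of a monoclonal hAM1-overexpressing stable line, plated at 8000 cells/well in DPBS supplemented with 0.05% casein and 0.5 mM IBMX.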

[1] = Physical stability of peptide analogues (Thioflavin T fibrillation); assay type: physicochemical; details: maximum ThT signal normalized between hAMY maximum and buffer background; 40° C., shaking, four days; pH 7 per table title
In short: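 Maximum ThT emission at 480 nm, after LOESS smoothing, is given as percent of the span from buffer background to hAMY. Conditions: 50 mM buffer at pH 4 or 7, 4 μM dye, 40 °C, repeated shaking, readings every 10 min for four days.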

Sequence of hAM1 receptor (Q16602 23-461): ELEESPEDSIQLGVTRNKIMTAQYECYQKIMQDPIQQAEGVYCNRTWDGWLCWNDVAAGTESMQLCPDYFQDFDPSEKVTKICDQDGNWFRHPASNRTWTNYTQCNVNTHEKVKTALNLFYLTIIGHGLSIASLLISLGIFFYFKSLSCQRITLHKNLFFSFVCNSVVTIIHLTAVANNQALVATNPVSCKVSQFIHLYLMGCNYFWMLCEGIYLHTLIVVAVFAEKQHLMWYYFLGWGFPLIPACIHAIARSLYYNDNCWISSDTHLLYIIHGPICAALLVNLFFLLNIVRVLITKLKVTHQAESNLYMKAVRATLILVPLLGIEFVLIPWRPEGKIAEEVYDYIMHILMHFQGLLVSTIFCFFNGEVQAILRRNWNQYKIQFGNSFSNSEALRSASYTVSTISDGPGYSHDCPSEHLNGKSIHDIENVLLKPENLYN
Sequence of hAM1 receptor (O60895 43-175 partner): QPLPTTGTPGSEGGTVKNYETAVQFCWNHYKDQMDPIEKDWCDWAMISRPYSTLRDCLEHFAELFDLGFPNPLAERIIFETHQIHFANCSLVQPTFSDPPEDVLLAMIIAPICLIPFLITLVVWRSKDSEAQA

Row | Structure (SMILES) | EC50 (hAMY3 receptor) [nM] | EC50 (hAM1 receptor) [nM] | Max ThT signal (%) [1] [%]
1 | CC[C@H](C)[C@H](NC(=O)[C@H](CCC(N)=O)NC(=O)[C@H](Cc1c[nH]cn1)NC(=O)[C@H](C)NC(=O)[C@H](CC(C)C)NC(=O)[C@H](CCCNC(N)=O)NC(=O)[C@H](CCC(N)=O)NC(=O)[C@@H](NC(=O)[C@@H](NC(=O)[C@@H]1CSSC[C@H](NC(=O)CN)C(=O)N[C@@H](CCCNC(=N)N)C(=O)N[C@@H]([C@@H](C)O)C(=O)NCC(=O)N[C@@H]([C@@H](C)O)C(=O)N1)[C@@H](C)O)C(C)C)C(=O)N[C@@H](Cc1ccc(O)cc1)C(=O)N[C@@H](CCC(N)=O)C(=O)N[C@@H](Cc1ccccc1)C(=O)N[C@H](C(=O)N[C@@H](CC(=O)O)C(=O)N[C@@H](CCCCN)C(=O)N[C@@H](CC(=O)O)C(=O)N[C@@H](CCCCN)C(=O)N[C@@H](CC(=O)O)C(=O)N[C@@H](CC(N)=O)C(=O)N[C@H](C(=O)N[C@@H](C)C(=O)N1CCC[C@H]1C(=O)N[C@@H](CCCNC(=N)N)C(=O)N[C@@H](CO)C(=O)N[C@@H](CC(N)=O)C(=O)N[C@H](C(=O)NCC(=O)N1CCC[C@H]1C(=O)N[C@@H](CCC(N)=O)C(=O)NCC(=O)N1C[C@H](O)C[C@H]1C(N)=O)C(C)C)C(C)C)[C@@H](C)O [compound 281] (H-GCRTGTCTVQ[Cit]LAHQIYQFTDKDKDNVAPRSNVGPQG[Hyp]-NH2; disulfide 2-7; N-terminus assumed) | 0.034 | > 5000 | 22.650
2 | CC[C@H](C)[C@H](NC(=O)[C@H](C)NC(=O)[C@H](Cc1c[nH]cn1)NC(=O)[C@H](C)NC(=O)[C@H](CC(C)C)NC(=O)[C@H](Cc1c[nH]c2ccccc12)NC(=O)[C@H](CCC(N)=O)NC(=O)[C@@H](NC(=O)[C@@H](NC(=O)[C@@H]1CSSC[C@H](NC(=O)[C@@H](N)CCCCN)C(=O)N[C@@H](CC(N)=O)C(=O)N[C@@H]([C@@H](C)O)C(=O)N[C@@H](C)C(=O)N[C@@H]([C@@H](C)O)C(=O)N1)[C@@H](C)O)C(C)C)C(=O)N[C@@H](Cc1ccc(O)cc1)C(=O)N[C@@H](CCC(N)=O)C(=O)N[C@@H](Cc1ccccc1)C(=O)N[C@H](C(=O)N[C@@H](CC(=O)O)C(=O)N[C@@H](CCCCN)C(=O)N[C@@H](CC(=O)O)C(=O)N[C@@H](CCCCN)C(=O)N[C@@H](CC(=O)O)C(=O)N[C@@H](CC(N)=O)C(=O)N[C@H](C(=O)N[C@@H](C)C(=O)N1CCC[C@H]1C(=O)N1CCC[C@H]1C(=O)N[C@H](C(=O)N[C@@H](CC(N)=O)C(=O)N[C@H](C(=O)NCC(=O)N[C@@H](CO)C(=O)N[C@@H](CC(N)=O)C(=O)NCC(=O)N1C[C@H](O)C[C@H]1C(N)=O)C(C)C)[C@@H](C)O)C(C)C)[C@@H](C)O [compound 308] (H-KCNTATCTVQWLAHAIYQFTDKDKDNVAPPTNVGSNG[Hyp]-NH2; disulfide 2-7; N-terminus assumed) | 0.014 | > 5000 | 14.500
3 | CC[C@H](C)[C@H](NC(=O)[C@H](CCC(N)=O)NC(=O)[C@H](Cc1c[nH]cn1)NC(=O)[C@H](C)NC(=O)[C@H](CC(C)C)NC(=O)[C@H](CCCNC(N)=O)NC(=O)[C@H](CCC(N)=O)NC(=O)[C@@H](NC(=O)[C@@H](NC(=O)[C@@H]1CSSC[C@H](NC(=O)[C@@H](N)CCCCN)C(=O)N[C@@H](CC(N)=O)C(=O)N[C@@H]([C@@H](C)O)C(=O)N[C@@H](C)C(=O)N[C@@H]([C@@H](C)O)C(=O)N1)[C@@H](C)O)C(C)C)C(=O)N[C@@H](Cc1ccc(O)cc1)C(=O)N[C@@H](CCC(N)=O)C(=O)N[C@@H](Cc1ccccc1)C(=O)N[C@H](C(=O)N[C@@H](CC(=O)O)C(=O)N[C@@H](CCCCN)C(=O)N[C@@H](CC(=O)O)C(=O)N[C@@H](CCCCN)C(=O)N[C@@H](CC(=O)O)C(=O)N[C@@H](CC(N)=O)C(=O)N[C@H](C(=O)N[C@@H](C)C(=O)N[C@@H](C)C(=O)N1CCC[C@H]1C(=O)N[C@H](C(=O)N[C@@H](CC(N)=O)C(=O)N[C@H](C(=O)NCC(=O)N[C@@H](CO)C(=O)N[C@@H](CC(N)=O)C(=O)NCC(=O)N1C[C@H](O)C[C@H]1C(N)=O)C(C)C)[C@@H](C)O)C(C)C)[C@@H](C)O [compound 262] (H-KCNTATCTVQ[Cit]LAHQIYQFTDKDKDNVAAPTNVGSNG[Hyp]-NH2; disulfide 2-7; N-terminus assumed) | 0.014 | > 5000 | 9.550
4 | CC[C@H](C)[C@H](NC(=O)[C@H](CCC(N)=O)NC(=O)[C@H](CCC(=O)O)NC(=O)[C@H](C)NC(=O)[C@H](CC(C)C)NC(=O)[C@H](CCCNC(N)=O)NC(=O)[C@H](CCC(N)=O)NC(=O)[C@@H](NC(=O)[C@@H](NC(=O)[C@@H]1CSSC[C@H](NC(=O)[C@@H](N)CCCCN)C(=O)N[C@@H](CC(N)=O)C(=O)N[C@@H]([C@@H](C)O)C(=O)N[C@@H](C)C(=O)N[C@@H]([C@@H](C)O)C(=O)N1)[C@@H](C)O)C(C)C)C(=O)N[C@@H](Cc1ccc(O)cc1)C(=O)N[C@@H](CCC(N)=O)C(=O)N[C@@H](Cc1ccccc1)C(=O)N[C@H](C(=O)N[C@@H](CC(=O)O)C(=O)N[C@@H](CCCCN)C(=O)N[C@@H](CC(=O)O)C(=O)N[C@@H](CCCCN)C(=O)N[C@@H](CC(=O)O)C(=O)N[C@@H](CC(N)=O)C(=O)N[C@H](C(=O)N[C@@H](CO)C(=O)N1CCC[C@H]1C(=O)N1CCC[C@H]1C(=O)N[C@H](C(=O)N[C@@H](CC(N)=O)C(=O)N[C@H](C(=O)NCC(=O)N[C@@H](CO)C(=O)N[C@@H](CC(N)=O)C(=O)NCC(=O)N1C[C@H](O)C[C@H]1C(N)=O)C(C)C)[C@@H](C)O)C(C)C)[C@@H](C)O [compound 266] (H-KCNTATCTVQ[Cit]LAEQIYQFTDKDKDNVSPPTNVGSNG[Hyp]-NH2; disulfide 2-7; N-terminus assumed) | 0.053 | > 5000 | 20.900

The next compounds have a lower EC50 (hAMY3 receptor) than those just listed; values first:

Row | EC50 (hAMY3 receptor) [nM] | EC50 (hAM1 receptor) [nM] | Max ThT signal (%) [1] [%] | Structure (SMILES)
5 | 0.008 | > 5000 | 21.80 | CC[C@H](C)[C@H](NC(=O)[C@H](CCC(N)=O)NC(=O)[C@H](Cc1c[nH]cn1)NC(=O)[C@H](C)NC(=O)[C@H](CC(C)C)NC(=O)[C@H](CCCNC(=N)N)NC(=O)[C@H](CCC(N)=O)NC(=O)[C@@H](NC(=O)[C@@H](NC(=O)[C@@H]1CSSC[C@H](NC(=O)[C@@H](N)CCCCN)C(=O)N[C@@H](CC(N)=O)C(=O)N[C@@H]([C@@H](C)O)C(=O)N[C@@H](C)C(=O)N[C@@H]([C@@H](C)O)C(=O)N1)[C@@H](C)O)C(C)C)C(=O)N[C@@H](Cc1ccc(O)cc1)C(=O)N[C@@H](CCC(N)=O)C(=O)N[C@@H](Cc1ccccc1)C(=O)N[C@H](C(=O)N[C@@H](CC(=O)O)C(=O)N[C@@H](CCCCN)C(=O)N[C@@H](CC(=O)O)C(=O)N[C@@H](CCCCN)C(=O)N[C@@H](CC(=O)O)C(=O)N[C@@H](CC(N)=O)C(=O)N[C@@H](C)C(=O)N[C@@H](C)C(=O)N1CCC[C@H]1C(=O)N1CCC[C@H]1C(=O)N[C@H](C(=O)N[C@@H](CC(N)=O)C(=O)N[C@H](C(=O)NCC(=O)N[C@@H](CO)C(=O)N[C@@H](CC(N)=O)C(=O)NCC(=O)N1C[C@H](O)C[C@H]1C(N)=O)C(C)C)[C@@H](C)O)[C@@H](C)O [compound 27] (H-KCNTATCTVQRLAHQIYQFTDKDKDNAAPPTNVGSNG[Hyp]-NH2; disulfide 2-7; N-terminus assumed)
6 | 0.009 | > 5000 | 11.100 | CC[C@H](C)[C@H](NC(=O)[C@H](CCC(N)=O)NC(=O)[C@H](Cc1c[nH]cn1)NC(=O)[C@H](C)NC(=O)[C@H](CC(C)C)NC(=O)[C@H](Cc1c[nH]c2ccccc12)NC(=O)[C@H](CCC(N)=O)NC(=O)[C@@H](NC(=O)[C@@H](NC(=O)[C@@H]1CSSC[C@H](NC(=O)[C@@H](N)CCCCN)C(=O)N[C@@H](CC(N)=O)C(=O)N[C@@H]([C@@H](C)O)C(=O)N[C@@H](C)C(=O)N[C@@H]([C@@H](C)O)C(=O)N1)[C@@H](C)O)C(C)C)C(=O)N[C@@H](Cc1ccc(O)cc1)C(=O)N[C@@H](CCC(N)=O)C(=O)N[C@@H](Cc1ccccc1)C(=O)N[C@H](C(=O)N[C@@H](CC(=O)O)C(=O)N[C@@H](CCCCN)C(=O)N[C@@H](C)C(=O)N[C@@H](CCCCN)C(=O)N[C@@H](CC(=O)O)C(=O)N[C@@H](CC(N)=O)C(=O)N[C@H](C(=O)N[C@@H](C)C(=O)N1CCC[C@H]1C(=O)N1CCC[C@H]1C(=O)N[C@H](C(=O)N[C@@H](CC(N)=O)C(=O)N[C@H](C(=O)NCC(=O)N[C@@H](CO)C(=O)N[C@@H](CC(N)=O)C(=O)NCC(=O)N1C[C@H](O)C[C@H]1C(N)=O)C(C)C)[C@@H](C)O)C(C)C)[C@@H](C)O [compound 320] (H-KCNTATCTVQWLAHQIYQFTDKAKDNVAPPTNVGSNG[Hyp]-NH2; disulfide 2-7; N-terminus assumed)

Source: US12139520B2 (priority 2020, dated 2024)
